Test results as given in patent US8178688B2, “Benzamidine derivatives, process for the preparation thereof and pharmaceutical composition comprising the same” (Dong Wha Pharmaceutical Co., Ltd., priority 2004, dated 2012).
Where two headings read alike, the source gives them in different places.

Columns and labels:
[1] = test system: osteoclast differentiation; test: Inhibitory effects on osteoclast differentiation (co-culture of bone marrow cells with osteoblast, TRAP staining); type: cell-based, mice; settings: Mus musculus, Osteoclast, 168 h, read-out: % inhibitory activity on osteoclastogenesis
Method in brief: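 Percent inhibition versus control is based on microscope counts of TRAP-positive osteoclasts (3 or more nuclei) after 7 days of compound exposure. Cultures paired ddY mouse marrow cells with ICR calvarial osteoblasts, driven by dexamethasone 10^−7M plus vitamin D3 10^−8M, with medium and compound changed every 2–3 days.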

cells = test: Cytotoxicity test (MTT); type: cell-based; settings: 10^−6M, 72 hrs, compared with the control group
Experimental: Cytotoxic effect of benzamidine derivatives was evaluated by the experiment described below.
The test substance was diluted in appropriate solvent at 10^−2M concentration. […] Cells to be used in cytotoxitic test were plated on a 96-well microplate in a dose of 1×10^4 cell/100 μL per well and cultured for 72 hrs. 25 μL of MTT [3-(4,5-dimethyl-2-thiazolyl)-2,5-diphenyl-2H-tetrazolium bromide] dissolved in PBS at 2 mg/mL were added before 4 hrs of the end of culture. After reaction, the plates were centrifuged, medium was decanted and 100 μL of DMSO was added to dissolve formazan. Lastly, the absorbance of developed plates was measured at 540 nm.

[2] = 1 μm, co-culture of bone marrow cells and osteoblast, 7 days, TRAP-positive osteoclasts versus controls
[3] = 1 m, co-culture of bone marrow cells and osteoblast, 7 days, TRAP-positive osteoclasts versus controls

## Cc1sc(C(C)(C)C)nc1-c1ccc(OCCCCCOc2ccc(C(=N)NO)cc2)cc1 [Example 16, N-hydroxy-4-(5-[4-(2-t-butyl-5-methyl-1,3-thiazol-4-yl)phenoxy]pentoxy)-benzamidine]
[1]
  inhibition at 1 µM: 64.3%
cells; MC3T3-E1 cells
  Survival rates of the cells: 39.6%
cells; ST2 cells
  Survival rates of the cells: 30.1%

## CCCCc1sc(C(C)C)nc1-c1ccc(OCCCCCOc2ccc(C(=N)NO)cc2)cc1 [Example 32, N-hydroxy-4-(5-[4-(5-butyl-2-isopropyl-1,3-thiazol-4-yl)phenoxy]pentoxy)-benzamidine]
[1]; [2]
  inhibition at 1 µM: 59.4%
cells; MC3T3-E1 cells
  Survival rates of the cells: 100.0%
cells; ST2 cells
  Survival rates of the cells: 55.1%

## CCCCc1sc(C2CCCCC2)nc1-c1ccc(OCCCCCOc2ccc(C(=N)NO)cc2)cc1 [Example 35, N-hydroxy-4-(5-[4-(5-butyl-2-cyclohexyl-1,3-thiazol-4-yl)phenoxy]pentoxy)-benzamidine]
[1]
  inhibition at 1 µM: 69.8%
cells; MC3T3-E1 cells
  Survival rates of the cells: 73.6%
cells; ST2 cells
  Survival rates of the cells: 56.3%

## CCCCc1sc(C(C)(C)C)nc1-c1ccc(OCCCCCOc2ccc(C(=N)NO)cc2)cc1 [Example 37, N-hydroxy-4-(5-[4-(5-butyl-2-t-butyl-1,3-thiazol-4-yl)phenoxy]pentoxy)-benzamidine]
[1]
  inhibition at 1 µM: 52.9%
cells; MC3T3-E1 cells
  Survival rates of the cells: 74.4%
cells; ST2 cells
  Survival rates of the cells: 40.5%

## N=C(NO)c1ccc(OCCCCCOc2ccc(-c3nc(-c4ccccc4)sc3Cc3ccccc3)cc2)cc1 [Example 40, N-hydroxy-4-(5-[4-(5-benzyl-2-phenyl-1,3-thiazol-4-yl)phenoxy]pentoxy)-benzamidine]
[1]; [2]
  inhibition at 1 µM: 60.1%
cells; MC3T3-E1 cells
  Survival rates of the cells: 100.0%
cells; ST2 cells
  Survival rates of the cells: 53.3%

## Cc1nc(-c2ccc(OCCCCCOc3ccc(C(=N)NO)cc3)cc2)c(CC2CCCC2)s1 [Example 45, N-hydroxy-4-(5-[4-(5-cyclopentylmethyl-2-methyl-1,3-thiazol-4-yl)phenoxy]pentoxy)-benzamidine]
[1]; [2]
  inhibition at 1 µM: 97.7%
cells; MC3T3-E1 cells
  Survival rates of the cells: 75.9%
cells; ST2 cells
  Survival rates of the cells: 37.0%

## CCc1nc(-c2ccc(OCCCCCOc3ccc(C(=N)NO)cc3)cc2)c(CC2CCCC2)s1 [Example 46, N-hydroxy-4-(5-[4-(5-cyclopentylmethyl-2-ethyl-1,3-thiazol-4-yl)phenoxy]pentoxy)-benzamidine]
[1]; [2]
  inhibition at 1 µM: 96.9%
cells; MC3T3-E1 cells
  Survival rates of the cells: 100.0%
cells; ST2 cells
  Survival rates of the cells: 48.3%

## N=C(NO)c1ccc(OCCCCCOc2ccc(-c3nc(-c4ccccc4)sc3CC3CCCC3)cc2)cc1 [Example 48, N-hydroxy-4-(5-[4-(5-cyclopentylmethyl-2-phenyl-1,3-thiazol-4-yl)phenoxy]pentoxy)-benzamidine]
[1]; [2]
  inhibition at 1 µM: 72.1%
cells; MC3T3-E1 cells
  Survival rates of the cells: 100.0%
cells; ST2 cells
  Survival rates of the cells: 51.2%

## N=C(NO)c1ccc(OCCCCCOc2ccc(-c3nc(-c4cccnc4)sc3CC3CCCC3)cc2)cc1 [Example 49, N-hydroxy-4-(5-[4-(5-cyclopentylmethyl-2-pyridin-3-yl-1,3-thiazol-4-yl)phenoxy]pentoxy)-benzamidine]
[1]; [2]
  inhibition at 1 µM: 77.1%
cells; MC3T3-E1 cells
  Survival rates of the cells: 83.5%
cells; ST2 cells
  Survival rates of the cells: 39.0%

## N=C(NO)c1ccc(OCCCCCOc2ccc(-c3nc(C4CCCCC4)sc3CC3CCCC3)cc2)cc1 [Example 50, N-hydroxy-4-(5-[4-(5-cyclopentylmethyl-2-cyclohexyl-1,3-thiazol-4-yl)phenoxy]pentoxy)-benzamidine]
[1]
  inhibition at 1 µM: 79.8%
cells; MC3T3-E1 cells
  Survival rates of the cells: 81.0%
cells; ST2 cells
  Survival rates of the cells: 61.0%

## CCCCCc1nc(-c2ccc(OCCCCCOc3ccc(C(=N)NO)cc3)cc2)c(CC2CCCC2)s1 [Example 51, N-hydroxy-4-(5-[4-(5-cyclopentylmethyl-2-pentyl-1,3-thiazol-4-yl)phenoxy]pentoxy)-benzamidine]
[1]
  inhibition at 1 µM: 74.8%
cells; MC3T3-E1 cells
  Survival rates of the cells: 95.5%
cells; ST2 cells
  Survival rates of the cells: 66.5%

## N=C(NO)c1ccc(OCCCCCOc2ccc(-c3csc(N)n3)cc2)cc1 [Example 57, N-hydroxy-4-(5-[4-(2-amino-1,3-thiazol-4-yl)phenoxy]pentoxy)-benzamidine]
[1]; [2]
  inhibition at 1 µM: 60.4%
cells; MC3T3-E1 cells
  Survival rates of the cells: 52.1%
cells; ST2 cells
  Survival rates of the cells: 19.9%

## CCCCc1sc(N)nc1-c1ccc(OCCCCCOc2ccc(C(=N)NO)cc2)cc1 [Example 63, N-hydroxy-4-(5-[4-(2-amino-5-butyl-1,3-thiazol-4-yl)phenoxy]pentoxy)-benzamidine]
[1]; [3]
  inhibition at 1 µM: 56.5%
cells; MC3T3-E1 cells
  Survival rates of the cells: 52.5%
cells; ST2 cells
  Survival rates of the cells: 29.3%

## N=C(NO)c1ccc(OCCCCCOc2ccc(-c3nc(N)sc3CC3CCCC3)cc2)cc1 [Example 67, N-hydroxy-4-(5-[4-(2-amino-5-cyclopentylmethyl-1,3-thiazol-4-yl)phenoxy]pentoxy)-benzamidine]
[1]; [3]
  inhibition at 1 µM: 81.4%
cells; MC3T3-E1 cells
  Survival rates of the cells: 68.9%
cells; ST2 cells
  Survival rates of the cells: 40.0%

## CNc1nc(-c2ccc(OCCCCCOc3ccc(C(=N)NO)cc3)cc2)c(C)s1 [Example 86, N-hydroxy-4-(5-[4-(5-methyl-2-methylamino-1,3-thiazol-4-yl)phenoxy]pentoxy)-benzamidine]
[1]; [3]
  inhibition at 1 µM: 52.9%
cells; MC3T3-E1 cells
  Survival rates of the cells: 100.0%
cells; ST2 cells
  Survival rates of the cells: 48.6%

## CCNc1nc(-c2ccc(OCCCCCOc3ccc(C(=N)NO)cc3)cc2)c(C)s1 [Example 87, N-hydroxy-4-(5-[4-(2-ethylamino-5-methyl-1,3-thiazol-4-yl)phenoxy]pentoxy)-benzamidine]
[1]; [3]
  inhibition at 1 µM: 58.1%
cells; MC3T3-E1 cells
  Survival rates of the cells: 97.3%
cells; ST2 cells
  Survival rates of the cells: 49.8%

## CCCNc1nc(-c2ccc(OC(C)CCCOc3ccc(C(=N)NO)cc3)cc2)c(C)s1 (stereo not drawn) [Example 88, N-hydroxy-4-(4-[4-(5-methyl-2-propylamino-1,3-thiazol-4-yl)phenoxy]pentoxy)-benzamidine]
[1]; [3]
  inhibition at 1 µM: 15.9%
cells; MC3T3-E1 cells
  Survival rates of the cells: 94.3%
cells; ST2 cells
  Survival rates of the cells: 48.7%

## Cc1sc(NC(=O)c2ccncc2)nc1-c1ccc(OCCCCCOc2ccc(C(=N)NO)cc2)cc1 [Example 91, N-hydroxy-4-(5-[4-(5-methyl-2-(4-pyridylcarbonyl)amino-1,3-thiazol-4-yl)phenoxy]pentoxy)-benzamidine]
[1]; [3]
  inhibition at 1 µM: 92.9%
cells; MC3T3-E1 cells
  Survival rates of the cells: 41.3%
cells; ST2 cells
  Survival rates of the cells: 20.8%

## CCS(=O)(=O)Nc1nc(-c2ccc(OCCCCCOc3ccc(C(=N)NO)cc3)cc2)c(C)s1 [Example 93, N-hydroxy-4-(5-[4-(2-ethanesulfonylamino-5-methyl-1,3-thiazol-4-yl)phenoxy]pentoxy)-benzamidine]
[1]; [3]
  inhibition at 1 µM: 63.7%
cells; MC3T3-E1 cells
  Survival rates of the cells: 66.8%
cells; ST2 cells
  Survival rates of the cells: 55.0%

## CCc1sc(NC)nc1-c1ccc(OCCCCCOc2ccc(C(=N)NO)cc2)cc1 [Example 96, N-hydroxy-4-(5-[4-(5-ethyl-2-methylamino-1,3-thiazol-4-yl)phenoxy]pentoxy)-benzamidine]
[1]; [3]
  inhibition at 1 µM: 64.3%
cells; MC3T3-E1 cells
  Survival rates of the cells: 65.1%
cells; ST2 cells
  Survival rates of the cells: 27.8%

## CCCNc1nc(-c2ccc(OCCCCCOc3ccc(C(=N)NO)cc3)cc2)c(CC)s1 [Example 98, N-hydroxy-4-(5-[4-(5-ethyl-2-propylamino-1,3-thiazol-4-yl)phenoxy]pentoxy)-benzamidine]
[1]; [3]
  inhibition at 1 µM: 94.7%
cells; MC3T3-E1 cells
  Survival rates of the cells: 77.1%
cells; ST2 cells
  Survival rates of the cells: 26.9%

## CCc1sc(NC(=O)c2ccncc2)nc1-c1ccc(OCCCCCOc2ccc(C(=N)NO)cc2)cc1 [Example 100, N-hydroxy-4-(5-[4-(5-ethyl-2-(4-pyridylcarbonyl)amino-1,3-thiazol-4-yl)phenoxy]pentoxy)-benzamidine]
[1]; [3]
  inhibition at 1 µM: 63%
cells; MC3T3-E1 cells
  Survival rates of the cells: 62.8%
cells; ST2 cells
  Survival rates of the cells: 39.1%

## CNc1nc(-c2ccc(OCCCCCOc3ccc(C(=N)NO)cc3)cc2)c(Cc2ccccc2)s1 [Example 107, N-hydroxy-4-(5-[4-(5-benzyl-2-methylamino-1,3-thiazol-4-yl)phenoxy]pentoxy)-benzamidine]
[1]; [3]
  inhibition at 1 µM: 53.2%
cells; MC3T3-E1 cells
  Survival rates of the cells: 65.2%
cells; ST2 cells
  Survival rates of the cells: 43.9%

## CNc1nc(-c2ccc(OCCCCCOc3ccc(C(=N)NO)cc3)cc2)c(CC2CCCC2)s1 [Example 109, N-hydroxy-4-(5-[4-(5-cyclopentylmethyl-2-methylamino-1,3-thiazol-4-yl)phenoxy]pentoxy)-benzamidine]
[1]; [3]
  inhibition at 1 µM: 80.5%
cells; MC3T3-E1 cells
  Survival rates of the cells: 65.7%
cells; ST2 cells
  Survival rates of the cells: 39.0%

## N=C(NO)c1ccc(OCCCCCOc2ccc(-c3nc(NC(=O)c4ccncc4)sc3CC3CCCC3)cc2)cc1 [Example 112, N-hydroxy-4-(5-[4-(5-cyclopentylmethyl-2-(4-pyridylcarbonyl)amino-1,3-thiazol-4-yl)phenoxy]pentoxy)-benzamidine]
[1]; [3]
  inhibition at 1 µM: 76.8%
cells; MC3T3-E1 cells
  Survival rates of the cells: 86.7%
cells; ST2 cells
  Survival rates of the cells: 63.6%

## CCS(=O)(=O)N(C)c1nc(-c2ccc(OCCCCCOc3ccc(C(=N)NO)cc3)cc2)cs1 [Example 118, N-hydroxy-4-(5-[4-(2-(ethanesulfonyl-methyl-amino)-1,3-thiazol-4-yl)phenoxy]pentoxy)-benzamidine]
[1]; [3]
  inhibition at 1 µM: 82.9%
cells; MC3T3-E1 cells
  Survival rates of the cells: 75.3%
cells; ST2 cells
  Survival rates of the cells: 53.2%
